Data: patent US11419806B2, “Prebiotic oral care methods using a saccharide” (Colgate-Palmolive Company, priority 2013, dated 2022)

How the values were obtained:
Type in all cases: cell-based
[1] = test system: Porphyromonas gingivalis; assay: Twenty-four hour optical density growth in BHI; conditions: P gingivalis
Procedure: (§1) The extent of growth of the tested bacteria in response to selected saccharides (myo-inositol, D-lactitol, D-turanose and N-acetyl-D-mannosamine) was investigated by setting up growth curves in a nutritionally rich medium (brain heart infusion broth (BHI), Oxoid), over 24 hours. Late exponential growth phase liquid cultures were prepared by transferring the respective bacterium from blood agar plates to BHI and overnight incubation at 37° C. in an anaerobic atmosphere for A. viscosus, V. parvula, F. nucleatum, P. gingivalis, P. intermedia, T. forsythia, A. naeslundii, and C. sputigena, and in a 5% CO2 environment for S. salivarius, S. sanguinis, S. mitis, A. actinomycetemcomitans, S. mutans, S. sobrinus and S. gordonii. Overnight cultures were transferred to BHI and adjusted to a concentration of 1×10^7 CFU/ml (colony forming units per ml) by measuring the optical density at 600 nm (OD600) (BioRad SmartSpec 3000). For each strain, 200 μl of the bacterial suspension was added to a 96-well plate containing 20 μl of the respective saccharides. Final concentrations of the saccharides were set to 5, 10, 20 and 25 μmol/ml. […] Plates were incubated as previously described.
(§2) For each combination of bacterium/saccharide, and for each of their respective controls (i.e. the particular bacterium in the nutritionally rich medium with no saccharide), the optical density was measured at 630 nm (OD630) at 0 h and 24 h (Thermo Scientific Multiskan Ascent). Additionally, the OD630 for combinations of bacterium/saccharides grown in a 5% CO2 environment were also measured every hour between 0 h and 9 h.
(§3) The experiment was carried out on three different days (thus providing 3 biological replicas) and on each day the experiment was carried out in quadruple (thus providing 4 technical replicas) for each combination of bacterium with saccharide and for each control. For each day and for each combination, the average (mean) of the values obtained (as detailed above) for the four technical replicas was calculated to provide a single value for each combination on each day. The values shown in Tables 5a,b to 6a,b, below, are the average (mean) of the three single values obtained for each combination of bacterium with saccharide.

[2] = test system: Fusobacterium nucleatum; assay: Twenty-four hour optical density growth in BHI; conditions: F nucleatum
Procedure: as §1, §2, §3

[3] = test system: S. sanguinis; assay: Twenty-four hour optical density growth in BHI
Procedure: as §1, §2, §3

[4] = test system: Streptococcus mutans; assay: Twenty-four hour optical density growth in BHI; conditions: S mutans
Procedure: as §1, §2, §3

[5] = test system: Streptococcus salivarius; assay: Twenty-four hour optical density growth in BHI; conditions: S salivarius
Procedure: as §1, §2, §3

[6] = test system: Streptococcus gordonii; assay: Phenotype microarray metabolic activity; conditions: S gordonii
Procedure, shortened: (§4)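 Bacteria grown anaerobically on blood agar were suspended in nutrient-poor IF-0 fluid with tetrazolium Redox Dye Mix D (85% transmittance) and inoculated onto plates pre-loaded with saccharides. Respiration-driven dye reduction was read as OD492 after 24 and 48 h anaerobic incubation at 37 °C, against no-saccharide controls; mean of three biological replicates.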

[7] = test system: Prevotella intermedia; assay: Phenotype microarray metabolic activity; conditions: P intermedia
Procedure, shortened: as §4

[8] = test system: Tannerella forsythia; assay: Phenotype microarray metabolic activity; conditions: T forsythia
Procedure, shortened: as §4

[9] = test system: Aggregatibacter actinomycetemcomitans; assay: Phenotype microarray metabolic activity; conditions: A actinomycetemcomitans
Procedure, shortened: as §4

[10] = test system: Streptococcus mitis; assay: Phenotype microarray metabolic activity; conditions: S mitis
Procedure, shortened: as §4

[11] = test system: S sanguinis; assay: Phenotype microarray metabolic activity
Procedure, shortened: as §4

| Compound | extent of growth: maximal OD630 over 24 hr divided by maximal OD of control (control = 1) ([1]; 5 μmol/ml) | extent of growth: maximal OD630 over 24 hr divided by maximal OD of control (control = 1) ([1]; 10 μmol/ml) | extent of growth: maximal OD630 over 24 hr divided by maximal OD of control (control = 1) ([1]; 20 μmol/ml) | extent of growth: maximal OD630 over 24 hr divided by maximal OD of control (control = 1) ([1]; 25 μmol/ml) | extent of growth: maximal OD630 over 24 hr divided by maximal OD of control (control = 1) ([2]; 5 μmol/ml) | extent of growth: maximal OD630 over 24 hr divided by maximal OD of control (control = 1) ([2]; 10 μmol/ml) | extent of growth: maximal OD630 over 24 hr divided by maximal OD of control (control = 1) ([2]; 20 μmol/ml) | extent of growth: maximal OD630 over 24 hr divided by maximal OD of control (control = 1) ([2]; 25 μmol/ml) | extent of growth: maximal OD630 over 24 hr divided by maximal OD of control (control = 1) ([3]; 5 μmol/ml) | extent of growth: maximal OD630 over 24 hr divided by maximal OD of control (control = 1) ([3]; 10 μmol/ml) | extent of growth: maximal OD630 over 24 hr divided by maximal OD of control (control = 1) ([3]; 20 μmol/ml) | extent of growth: maximal OD630 over 24 hr divided by maximal OD of control (control = 1) ([3]; 25 μmol/ml) | extent of growth: maximal OD630 over 24 hr divided by maximal OD of control (control = 1) ([4]; 5 μmol/ml) | extent of growth: maximal OD630 over 24 hr divided by maximal OD of control (control = 1) ([4]; 10 μmol/ml) | extent of growth: maximal OD630 over 24 hr divided by maximal OD of control (control = 1) ([4]; 20 μmol/ml) | extent of growth: maximal OD630 over 24 hr divided by maximal OD of control (control = 1) ([4]; 25 μmol/ml) | extent of growth: maximal OD630 over 24 hr divided by maximal OD of control (control = 1) ([5]; 5 μmol/ml) | extent of growth: maximal OD630 over 24 hr divided by maximal OD of control (control = 1) ([5]; 10 μmol/ml) | extent of growth: maximal OD630 over 24 hr divided by maximal OD of control (control = 1) ([5]; 20 μmol/ml) | extent of growth: maximal OD630 over 24 hr divided by maximal OD of control (control = 1) ([5]; 25 μmol/ml) | further results |
| --- | --- | --- | --- | --- | --- | --- | --- | --- | --- | --- | --- | --- | --- | --- | --- | --- | --- | --- | --- | --- | --- |
| O[C@H]1[C@H](O)[C@@H](O)[C@H](O)[C@@H](O)[C@H]1O [Myo-Inositol, (1R,2R,3S,4S,5R,6S)-cyclohexane-1,2,3,4,5,6-hexol] | 1.0200 | 1.0126 | 0.9758 | 0.9855 | 0.9430 | 0.9489 | 0.9512 | 0.9518 | 0.9429 | 0.9536 | 0.8540 | 0.9077 | 1.1065 | 1.0553 | 0.9645 | 0.9449 | 0.9359 | 0.9395 | 0.9136 | 0.8905 | metabolic activity: OD 492 nm divided by OD of control (control = 1) ([6]; 24 hrs): 0.8556; metabolic activity: OD 492 nm divided by OD of control (control = 1) ([6]; 48 hrs): 0.8202; metabolic activity: OD 492 nm divided by OD of control (control = 1) ([7]; 24 hrs): 1.0174; metabolic activity: OD 492 nm divided by OD of control (control = 1) ([7]; 48 hrs): 1.0226; metabolic activity: OD 492 nm divided by OD of control (control = 1) ([8]; 24 hrs): 0.9597; metabolic activity: OD 492 nm divided by OD of control (control = 1) ([8]; 48 hrs): 0.9564; metabolic activity: OD 492 nm divided by OD of control (control = 1) ([9]; 24 hrs): 1.3215; metabolic activity: OD 492 nm divided by OD of control (control = 1) ([9]; 48 hrs): 1.5191; metabolic activity: OD 492 nm divided by OD of control (control = 1) ([10]; 24 hrs): 1.0571; metabolic activity: OD 492 nm divided by OD of control (control = 1) ([10]; 48 hrs): 0.9877; metabolic activity: OD 492 nm divided by OD of control (control = 1) ([11]; 24 hrs): 0.9436; metabolic activity: OD 492 nm divided by OD of control (control = 1) ([11]; 48 hrs): 1.0400 |
| CC(=O)N[C@H](C=O)[C@@H](O)[C@H](O)[C@H](O)CO [N-acetyl-D-mannosamine, 2-acetamido-2-deoxy-D-mannose] | 0.8020 | 0.8427 | 0.9137 | 0.9419 | 0.9065 | 0.8477 | 0.9564 | 0.9193 | 0.8350 | 0.8644 | 0.8219 | 0.8122 | 0.8669 | 0.8670 | 0.8300 | 0.8283 | 0.8639 | 0.8849 | 0.8460 | 0.9251 | metabolic activity: OD 492 nm divided by OD of control (control = 1) ([6]; 24 hrs): 1.6021; metabolic activity: OD 492 nm divided by OD of control (control = 1) ([6]; 48 hrs): 2.3739; metabolic activity: OD 492 nm divided by OD of control (control = 1) ([7]; 24 hrs): 0.9878; metabolic activity: OD 492 nm divided by OD of control (control = 1) ([7]; 48 hrs): 0.9805; metabolic activity: OD 492 nm divided by OD of control (control = 1) ([8]; 24 hrs): 0.9666; metabolic activity: OD 492 nm divided by OD of control (control = 1) ([8]; 48 hrs): 0.9443; metabolic activity: OD 492 nm divided by OD of control (control = 1) ([9]; 24 hrs): 1.7369; metabolic activity: OD 492 nm divided by OD of control (control = 1) ([9]; 48 hrs): 2.1360; metabolic activity: OD 492 nm divided by OD of control (control = 1) ([10]; 24 hrs): 3.4298; metabolic activity: OD 492 nm divided by OD of control (control = 1) ([10]; 48 hrs): 3.0447; metabolic activity: OD 492 nm divided by OD of control (control = 1) ([11]; 24 hrs): 2.9770; metabolic activity: OD 492 nm divided by OD of control (control = 1) ([11]; 48 hrs): 3.0358 |
